The source of these data is US5792758A, “Steroid nitrite ester derivatives useful as anti-inflammatory drugs” (G. D. Searle & Co., priority 1995, dated 1998).

This test has as its system rat aortic ring. As to the kind of experiment: In vitro smooth muscle relaxant activity assay (rat aortic ring assay) in the presence of Cys and L-NAME. Format: cell-based. To be noted: for EC50: rat aortic rings precontracted with phenylephrine (0.3 uM), read-out: Relaxation, EC50. On the procedure: The rat aortic ring assay was utilized as a bioassay to measure the relaxant activity. The rings were precontracted with phenylephrine (0.3 uM) and subsequently compounds were added to the tissue bath in the presence of cysteine (Cys) and N^G -L-nitroarginine methyl ester (L-NAME): In vitro smooth muscle relaxant activity assay in the presence of Cys and L-NAME: […]

In general, EC50 refers to the midpoint of the concentration-response curve.

Consider `CCCC1O[C@@H]2C[C@H]3[C@@H]4CCC5=CC(=O)C=C[C@]5(C)[C@H]4[C@@H](O)C[C@]3(C)[C@]2(C(=O)CO[N+](=O)[O-])O1` (stereo partly shown) [Example 2A, Budesonide-21-Nitrate ester], for which the concentration for a half-maximal effect (EC50) was 5 µM. As to `CCCC1O[C@@H]2C[C@H]3[C@@H]4CCC5=CC(=O)C=C[C@]5(C)[C@H]4[C@@H](O)C[C@]3(C)[C@]2(C(=O)CO)O1` (stereo partly shown) [budesonide, 16a,17-butylidenedioxyprednisolone], the 50% effective concentration (EC50) was determined as 100 µM. The “smooth muscle relaxant activity (in words)” value (rat aortic rings precontracted with phenylephrine) is given as “did not show any effect”. With `CCCC1O[C@@H]2C[C@H]3[C@@H]4CCC5=CC(=O)C=C[C@]5(C)[C@H]4[C@@H](ON=O)C[C@]3(C)[C@]2(C(=O)CO)O1` (stereo partly shown) [Example 1, Budesonide-11-nitrite ester], the EC50 was 0.02 µM.
